Experimental data as given in paper PMC6409085, “Three odorant-binding proteins are involved in the behavioral response of Sogatella furcifera to rice plant volatiles” (PeerJ, 2019).
Like-named read-outs stand apart in the source and are kept apart here.

Tests used:
[1] = system: dsRNA treated S. furcifera adults; assay: Y-tube olfactometer behavioral trials after RNAi; assay type: in vivo, Sogatella furcifera; settings: for number of insects choosing hexane arm / number of insects choosing volatile arm / number of insects failed (no choice): odorant vs hexane
Experimental: To test the effect of the rice odorants on the behavior of S. furcifera adults, a glass Y-tube olfactometer (inner diameter 2.0 cm, stem 13 cm, arms 10 cm, angle of arms 60°) according to the previously described ([Wang et al., 2014b]) was employed. An airtight cubic box (70 by 45 by 30 cm) was used to position Y-tube, and the Y-tube was lighted by a 30-W filament lamp 25 cm above it. Air that filtered through activated charcoal and humidified with doubly distilled water was pumped in both arms at a flow rate of 300 mL/min. Two filter paper strips (10 by 1 cm) containing 100 µL odorant source (50 µL/L) and 100 µL control hexane were placed in two holding chambers in the front of the olfactometer, respectively. A S. furcifera adult (2 days after emergence, starved for 0.5 h) was randomly chosen and placed in the stem of the Y-tube. Each insect was given 10 min to choose between the two arms of the Y-tube, the choice was noted if the planthopper reached one-half of the arms’ lengths and stayed in the arm for more than 1 min. Besides, S. furcifera was considered as having no orientation preference. Forty-five individuals were used for each compound, each insect used only once. And the dual-choice experiment was done in an environmentally controlled room (25 ± 1 °C and 50% RH). A Chi-squared test was used to analyze the behavioral assay data by using SPSS19.0 (SPSS Inc., Chicago, IL, USA) software.
S. furcifera adults (one-day-old, CO2 anesthetized) were injected with dsRNA (50 nL/adult, 2,000 ng/µL) through the membrane between the meso- and meta-thoracic legs using a Nanoinjector (Drummond Scientific, Broomall, PA, USA). Five treatments including dsOBP2, dsOBP3, dsOBP11, dsEGFP and RNase-free water (Control) were set up. Each treatment consisted of 30 adults and the experiments were repeated three times. Ten individuals were collected from each replicate to determine the effects of RNAi by qPCR post 24 h of dsRNA injection (the timepoint with maximum RNAi efficiency after injection). Meanwhile, the behavioral responses of dsRNA treated adults for volatiles which binding well to OBP and attract or repel to S. furcifera were tested using a Y-tube olfactometer as described above.

[2] = system: S. furcifera adults; design: method as in Wang et al., 2017; settings: previously reported, ref Wang et al., 2017, cited from earlier work

SMILES | behavioral response (in words) ([1]; dsOBP11 injected adults) | number of insects choosing hexane arm ([1]; dsOBP11 injected adults) | number of insects choosing volatile arm ([1]; dsOBP11 injected adults) | number of insects failed (no choice) ([1]; dsOBP11 injected adults) | behavioral response of S. furcifera (in words) [2] | behavioral response of S. furcifera (in words) ([2]; listed as Plant alcohol) | behavioral response (in words) ([1]; dsOBP3 injected adults) | number of insects choosing hexane arm ([1]; dsOBP3 injected adults) | number of insects choosing volatile arm ([1]; dsOBP3 injected adults) | number of insects failed (no choice) ([1]; dsOBP3 injected adults) | behavioral response (in words) ([1]; SfurOBP2 silenced adults) | number of insects choosing hexane arm ([1]; dsOBP2 injected adults) | number of insects choosing volatile arm ([1]; dsOBP2 injected adults) | number of insects failed (no choice) ([1]; dsOBP2 injected adults)
C/C(=C\CO)CCC[C@H](C)CCC[C@H](C)CCCC(C)C [plant alcohol] | lost the activation that repel | 17 | 19 | 13 | significantly repellent effect | strongly repellent | – | – | – | – | – | – | – | –
C=C/C(C)=C/C/C=C(\C)CCC=C(C)C [α-farnesene] | – | – | – | – | – | – | no longer attracted | 11 | 12 | 15 | – | – | – | –
CC(=O)/C=C/C1=C(C)CCCC1(C)C [β-Ionone] | – | 8 | 17 | 16 | – | – | – | 9 | 16 | 15 | significantly reduced the number of adults that attracted | 14 | 13 | 15
